For one molecule, CARM1 degradation results are on record in patent publication US20250222120A1, “SYNTHESIS OF NOVEL SMALL MOLECULE CARM1 DEGRADERS, COMPOUNDS FORMED THEREBY, AND PHARMACEUTICAL COMPOSITIONS CONTAINING THEM” (Wisconsin Alumni Research Foundation, priority 2024, published 2025).

For this test, the target named is T1, CARM1 (Homo sapiens, UniProt Q86X55).
T1 sequence (Q86X55 1-608): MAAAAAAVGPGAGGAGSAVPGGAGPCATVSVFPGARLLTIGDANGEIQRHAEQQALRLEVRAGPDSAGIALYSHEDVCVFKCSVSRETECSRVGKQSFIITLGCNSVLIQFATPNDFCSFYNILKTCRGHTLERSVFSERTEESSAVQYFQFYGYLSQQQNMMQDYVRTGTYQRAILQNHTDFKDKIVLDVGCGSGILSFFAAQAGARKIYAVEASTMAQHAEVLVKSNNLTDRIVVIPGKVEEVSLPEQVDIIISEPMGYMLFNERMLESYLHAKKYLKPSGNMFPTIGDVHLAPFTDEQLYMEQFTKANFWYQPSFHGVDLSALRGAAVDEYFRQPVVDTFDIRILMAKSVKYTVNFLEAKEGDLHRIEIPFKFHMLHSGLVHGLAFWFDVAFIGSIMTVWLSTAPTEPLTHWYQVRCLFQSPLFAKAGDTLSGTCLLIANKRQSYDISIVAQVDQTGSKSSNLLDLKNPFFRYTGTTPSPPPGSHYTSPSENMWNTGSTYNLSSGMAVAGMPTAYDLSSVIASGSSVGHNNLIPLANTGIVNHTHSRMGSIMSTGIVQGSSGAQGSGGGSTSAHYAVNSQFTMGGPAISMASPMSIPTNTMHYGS
Nature of the test: CARM1 degradation by western blot in BT474 cells. In kind it is cell-based. To be noted: ER+/HER2+ BT474 cells, 0.5 μM, after 24 or 48 h. The source says:
FIGS. 7A-7F. […] Cell lysates were collected and CARM1, methyl-BAF155, total BAF155, methyl-PABP1, and total PABP1 levels were detected by Western blot. […] Cell lysates were collected and CARM1, methyl-BAF155, total BAF155 levels were detected by Western blot. […] Cell proliferation rate normalized to day 0 was plotted. […] Migrated cells were stained with 1% crystal violet and the percentage of migrated cells were plotted. Data mean±s.d. ***. P≤0.001.
Western Blot Assay. Cells were harvested and washed with Dulbecco's phosphate-buffered saline (PBS), then lysed with 1×RIPA lysis buffer (50 mM Tris pH 7.5, 150 mM NaCl, 1% NP-40, 0.5% sodium deoxycholate, and 0.1% sodium dodecyl sulfate) supplemented with 1 mM phenylmethylsulfonyl fluoride, 10 μg/mL aprotinin, 1 μM leupeptin, and 10 μg/mL pepstatin on ice for 20 min. The supernatant was collected after spinning down at 15000 RPM at 4 degrees Celsius for 10 min. The concentration of whole lysates was quantified using a Bradford assay. 50-75 μg of cell lysates was boiled in 4× Laemmli Loading Dye and boiled at 100 degrees Celsius for 10 min. 25 μg were run in 8% SDS-PAGE gels and transferred to nitrocellulose membranes. Blots were blocked in 5% skim milk in PBST [PBS and 0.1% Tween 20] for 45 min, then incubated with primary antibodies at 4 degrees Celsius overnight. […]

For `CNCCN1CCC(c2cc(CN(C)C(=O)c3cccc(Oc4ccc(OCC(=O)N5CCC(CN6CCC(CN7CCN(CC(=O)N[C@H](C(=O)N8C[C@H](O)C[C@H]8C(=O)N[C@@H](C)c8ccc(-c9scnc9C)cc8)C(C)(C)C)CC7)CC6)CC5)cc4)c3)ccn2)CC1` [Compound 3b, (2S,4R)-1-((S)-3,3-dimethyl-2-(2-(4-((1-((1-(2-(4-(3-(methyl((2-(1-(2-(methylamino)ethyl)piperidin-4-yl)pyridin-4-yl)methyl)carbamoyl)phenoxy)phenoxy)acetyl)piperidin-4-yl)methyl)piperidin-4-yl)methyl)piperazin-1-yl)acetamido)butanoyl)-4-hydroxy-N—((S)-1-(4-(4-methylthiazol-5-yl)phenyl)ethyl)pyrrolidine-2-carboxamide], the CARM1 degradation entry is listed as “effectively degraded”.
